Reference: patent publication US20240050409A1, “Methods and Compositions for Treating Psychotic Disorders” (SOUND PHARMACEUTICALS INCORPORATED, priority 2014, published 2024)
Entries after “also recorded” stand apart in the source; their conditions may differ. Like-named read-outs stand apart in the source and are kept apart here.

Key:
NVHL rats = assay: Prepulse inhibition of the acoustic startle response (PPI) in NVHL rats; type: in vivo, Sprague-Dawley rats; conditions: adult NVHL rats
Method: To assess whether juvenile oxidative stress leads to behavioral deficits, a behavioral paradigm was used for testing in both animal models and schizophrenia patients. Prepulse inhibition of the acoustic startle response (PPI) is a measure of sensorimotor gating that is reduced in patients (Geyer and Braff, 1987) and NVHL rats (Lipska et al., 1995). PPI was tested in adult sham (n=11), NAC-treated sham (n=12), NVHL (n=9), and NAC-treated NVHL rats (n=17). In addition to loss of PVI maturation and electrophysiological anomalies, developmental oxidative stress in juvenile NVHL rats can cause schizophrenia-relevant adult behavioral deficits.
The beneficial effect of NAC treatment includes a large postnatal treatment that starts prior to the lesion and stops once rats become young adults. For full translational value one determines whether NAC is efficacious when started at an age that corresponds to the time when prodromal stages can be identified in humans. In another set of rats, NAC was administered in the drinking water starting at P35, an age that in rats is equivalent to early adolescence. For PPI deficits was tested in adult SHAM (n=15), untreated NVHL (n=12), and NAC-treated NVHL rats (n=14).
Ebselen is a glutathione peroxidase (GPx) mimic (Muller et al., 1984) that induces GPx expression (Kil et al., 2007) and enhances GSH levels in neurons, replenishing GSH depleted by neurotoxic mechanisms (Pawlas and Malecki, 2007). PPI was tested in adult vehicle-treated SHAM (n=10), Ebselen-treated SHAM (n=7), vehicle-treated NVHL (n=8), and Ebselen-treated NVHL rats (n=9), and Ebselen treatment during adolescence reversed PPI deficits in NVHL rats (as shown in FIG. 15D).
In another group of rats, the effects of the NADPH oxidase inhibitor Apocynin was assessed while delivering through juvenile and adolescent stages. PPI was tested in adult vehicle-treated SHAM (n=10), apocynin-treated SHAM (n=11), vehicle treated NHVL (n=7), and apocynin-treated NVHL (n=5). As illustrated in FIG. 15C a reversal of PPI deficits was observed.
Antioxidant pretreatment regimen: NAC (BioAdvantexPharma, Mississauga, Ontario, Canada) was administered in the drinking water at 900 mg/l. NAC treatment started at P5 or at P35, and previous work in mice has shown that NAC consumed by the dam is transmitted to the pups through her milk (das Neves Duarte et al., 2012). NAC treatment ended at P50. Fresh solutions were prepared every 2-3 days. Ebselen (Sound Pharmaceuticals Inc., Seattle, WA) was administered i.p. 5 days a week starting at P35 until the day of PPI testing (P60). Stock ebselen solution (20 mg/ml DMSO, frozen aliquots) was diluted 1:5 in sterile water and administered at a dose of 10 mg/kg. Control animals received an equivalent concentration of DMSO diluted 1:5 in water. Apocynin (Sigma-Aldrich, St. Louis, MO) was administered in the drinking water at a target dose of 100 mg/kg (Nwokocha et al., 2013). Prior to weaning at P21, drinking water contained a dose of 2 g apocynin per 0.5 1 of water, to ensure delivery through the dam's milk. Apocynin concentration was lowered after weaning to 750 mg/1 to best approximate the target dose. Treatment lasted from P5 to P50 with fresh solutions prepared every other day.
Prepulse inhibition: Starting at P60, both male and female rats were tested for PPI, as described previously (Feleder et al., 2010). As PPI deficits in NVHL rats are most evident when rats are challenged with apomorphine (Lipska et al., 1995), we injected apomorphine (0.1 mg/kg, i.p.) immediately prior to the PPI test session. Rats were placed in a sound- attenuated startle chamber (San Diego Instruments, San Diego, CA) with a 70 dB background white noise. After a 5 min adaptation period, the PPI test was initiated with pseudorandom trials every 15 to 25 seconds. Either pulse (120 dB), prepulse (75 dB, 80 dB, or 85 dB), no pulse or prepulse +pulse were delivered. […]

[1] = Repeat dosing 28-day study, monkey; conditions: cynomolgus monkey, in vivo, Cynomolgus monkeys, read-out: no-observable-effect-level (NOAEL)
Method: (§1) Seven acute and repeated dose toxicology studies were conducted in Sprague-Dawley rats, Sinclair miniature swine, and Cynomolgus monkey, and three genotoxicology studies.

[2] = tested on: N-methyl-D-asparatate receptors redox modulatory site; conditions: cited from earlier work
[3] = Ph-1 placebo-controlled, randomized, single ascending dose study: pharmacokinetics; type: in vivo; conditions: humans, single dose 200 mg to 1600 mg
Method: (§2) Ebselen has excellent oral availability (Fisher et al., 1988). Brain level was about 20% of the plasma level (Imai, et al., 2001, Ullrich, et al., 1996). […] A Ph-1 study was conducted in 32 humans in a placebo-controlled, randomized, single ascending dose design. Ebselen ranged from 200 mg to 1600 mg in the formulation. (1) Pharmacokinetics: The PK parameters of ebselen and its three metabolites were published (Lynch, et al., 2009). […] The tabulated side effects were published in Lynch, et al., 2009.

[4] = Repeat dosing 28-day study, mini-pig; design: species or system Sinclair miniature swine; conditions: Sinclair, minipig, in vivo, read-out: no-observable-effect-level (NOAEL)
Method: as §1

[5] = in vivo; cited from earlier work
rats [6] = assay: Chronic toxicity studies 26 and 52 weeks, rats; type: in vivo
Method: as §1

[7] = tested on: healthy males and females; assay: Ph-1 placebo-controlled, randomized, single ascending dose study: safety; type: in vivo, humans
Method: as §2

rats [8] = assay: Repeat dosing 28-day study, rats; type: in vivo, Sprague-Dawley rats
Method: as §1

[9] = in vivo; cited from earlier work; remark: listed apart in the source
[10] = Solubility of ebselen in aqueous solutions; type: physicochemical; conditions: 25° Celsius
Method: Ebselen is the only active ingredient administered in a formulation. […] Ebselen acts as a catalyst and is not consumed during detoxification reactions (Muller et. al, 1988). An embodiment of an ebselen formulation is >99% pure as confirmed by HPLC. The synthesis of this formulation is provided by Rhodia Pharma Solutions and includes capsules that are hermetically sealed in blister packs. Each capsule contains 200 mg the ebselen formulation or SPI-1000 (placebo).

mini-pigs = assay: Chronic toxicity studies 26 and 52 weeks, mini-pigs; type: in vivo
Method: as §1

neurons = conditions: cited from earlier work
[11] = 32 humans, single dose 200 mg to 1600 mg

COc1cc(C(C)=O)ccc1O [Apocynin]
effect on PPI deficit (NVHL rats; drinking water, target dose 100 mg/kg, P5 to P50, 100 mg/kg): prevented; also recorded: reversal
effect on PPI deficit (NVHL rats; drinking water, target dose 100 mg/kg, P5 to P50, listed as apocynin, 100 mg/kg): significant lesion by treatment interaction

O=c1c2ccccc2[se]n1-c1ccccc1 [Ebselen, 2-Phenyl-1,2-benzisoselenazol-3(2H)-one]
NOAEL at 28 days [1]: 2000 mg/kg
effect on NMDA receptor redox modulatory site [2]: modulates
neuron viability [2]: increases
Cmax ([3]; both sexes, human, in vivo, oral, range of means): 30.3 to 83.4 ng/mL
AUC(0-t) ([3]; both sexes, human, in vivo, oral, range of means, read-out: mean AUC0-t): 117 to 881 ng·h/mL
half-life ([3]; both sexes, human, in vivo, oral, range of means, read-out: mean t1/2): 6.4 to 16.7 h
Tmax ([3]; both sexes, human, in vivo, oral, range of medians, read-out: median Tmax): 1.5 to 2.3 h
predominate metabolite [3]: 2-glucuronyl selenobenzanilide
NOAEL at 28 days [4]: > 2000 mg/kg
effect on PPI deficit (NVHL rats; 10 mg/kg i.p. 5 days a week from P35 until PPI testing, 10 mg/kg): reversed; also recorded: significant lesion status by treatment interaction
effect on PPI deficit (NVHL rats; 10 mg/kg i.p. 5 days a week from P35 until PPI testing, listed as ebselen, 10 mg/kg): prevented
brain level as share of the plasma level [5]: about 20%
non-toxic effect level (rats [6]): 31.6 mg/kg
serious adverse events or discontinuation due to an AE [7, 11]: no serious adverse events
severity of AEs [7, 11]: mild or moderate
trends in clinical laboratory and ECG findings [7, 11]: No treatment- or dose-related trends
safety and tolerability ([7]; capsules, single oral dose up to 1600 mg): safe and well tolerated
no-observable-effect-level (NOAEL) (rats [8]): not identified
oral availability [9]: excellent
solubility in aqueous solutions [10]: slightly soluble
non-toxic effect level (mini-pigs): 178 mg/kg
GSH levels in neurons (basal and stressed conditions) (neurons): increased
glutamate-induced GSH depletion (neurons; combined with glutamate): neutralized; also recorded: Neuroprotective effect
GSH levels in neurons (basal and stressed conditions) (neurons; listed as ebselen): dose-dependently increases; also recorded: dose-dependent rise
